Literature values in patent publication US6423697B1, “Intraoral topical anti-inflammatory treatment for relief of migraine, tension-type headache, post-traumatic headache, facial pain, and cervical-muscle spasm” (priority 1999, dated 2002).

Assays:
[1] = oral medication

Compound | time to peak plasma levels (oral administration) | effectiveness for headache [1] | plasma half-life (in vivo) | time peak plasma levels are maintained (oral administration)
2-(3benzoxyphenyl)-propionic acid [Ketoprofen] | 0.5 to 2 h |  |  | 
CC(=O)Oc1ccccc1C(=O)O [Aspirin, salicylic acetate] | 1 to 2 h | mildly effective | 4.7 to 9 h | 4 to 6 h
CC(C)Cc1ccc(C(C)C(=O)O)cc1 (centres unmarked) [Ibuprofen, 2-(p-Isobutylphenyl) propionic acid] | 1 to 2 h | mildly effective |  | 
COc1ccc2cc([C@H](C)C(=O)O)ccc2c1 [Naproxen, 6-methoxy methyl-2-naphtalene acetic acid] |  | mildly effective |  | 
